As usually defined, the Kd is a measure of binding affinity in units of concentration.

This note sets out measurements from ChEMBL document CHEMBL1806453, “Conjugate of neamine and 2-deoxystreptamine mimic connected by an amide bond” (Bioorg Med Chem Lett, 2011).

What all share (format): nucleic-acid assay
Assay [1] deals with Nucleic Acid. The experiment in a line: Binding affinity to 2-AP labeled mutant RNA3 by fluorescence binding assay.
Assay [2] deals with Nucleic Acid. The experiment in a line: Binding affinity to 2-AP labeled mutant RNA8 by fluorescence binding assay.
Assay [3] has as its target Nucleic Acid. Put plainly: Binding affinity to 2-AP labeled mutant RNA5 by fluorescence binding assay.
Assay [4] deals with Nucleic Acid. Put plainly: Binding affinity to 2-AP labeled mutant RNA2 by fluorescence binding assay.
Assay [5] concerns the target Nucleic Acid. The experiment in a line: Binding affinity to 2-AP labeled mutant RNA7 by fluorescence binding assay.
For assay [6], the target named is Nucleic Acid. Put plainly: Binding affinity to 2-AP labeled RNA1 by fluorescence binding assay.
Assay [7] concerns the target Nucleic Acid. Put plainly: Binding affinity to 2-AP labeled mutant RNA6 by fluorescence binding assay.
Assay [8] deals with Nucleic Acid. The experiment in a line: Binding affinity to 2-AP labeled mutant RNA4 by fluorescence binding assay.

In the case of `CO[C@@H]1C[C@H](NC(=O)[C@@H]2C[C@H](O[C@H]3O[C@H](CN)[C@@H](O)[C@H](O)[C@H]3N)[C@@H](N)C[C@H]2N)[C@@H](N)C[C@H]1N`, the equilibrium dissociation constant (Kd) was found to be 2200 nM in assay [1]; 1400 nM in assay [2]; 500 nM in assay [3]; 1500 nM in assay [4]; 2900 nM in assay [5]; 2200 nM in assay [6]. Also, the Kd was 1400 nM in assay [7] and 1700 nM in assay [8].
Consider `NC[C@@H]1O[C@H](O[C@H]2[C@@H](O)[C@H](O[C@@H]3[C@@H](O)[C@H](N)C[C@H](N)[C@H]3O[C@H]3O[C@H](CN)[C@@H](O)[C@H](O)[C@H]3N)O[C@@H]2CO)[C@H](N)[C@@H](O)[C@@H]1O` [FRAMYCETIN], for which the Kd is 1100 nM in assay [1], 1100 nM in assay [3], 1100 nM in assay [5] and 1500 nM in assay [6].
